Results from patent US10508109B2 (priority 2015, dated 2019).
Structures can show the parent of a compound that is named as a salt. Where two headings read alike, the source gives them in different places.

What was measured:
CCD-18Co = assay: Cell-based assay, anti-proliferative activity (Cell Counting Kit-8, 72 hours); conditions: Homo sapiens, read-out: IC50 (μM) CCD-18Co
Summary of the method: (§1)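 Anti-proliferative IC50 obtained from 96-well cultures treated 72 h with inhibitor at 0–100 micro-M, growth assessed by a CCK-8 colorimetric readout.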

HFL1 = assay: as above; conditions: Homo sapiens, read-out: IC50 (μM) HFL1
Summary of the method: as §1

PC14 = assay: as above; conditions: Homo sapiens, read-out: IC50 (μM) PC14
Summary of the method: as §1

HCT-116 = assay: as above; conditions: Homo sapiens, read-out: IC50 (μM) HCT-116
Summary of the method: as §1

SUV39H2 = SUV39H2 (Homo sapiens (Human), UniProt Q9H5I1); conditions: read-out: IC50 (μM) Suv 39H2 assay; enzyme assay
A549 = assay: Cell-based assay, anti-proliferative activity (Cell Counting Kit-8, 72 hours); conditions: Homo sapiens, read-out: IC50 (μM) A549
Summary of the method: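 After compound exposure of cells in 96-well plates, growth was measured colorimetrically and converted into IC50 values.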

[1] = CCD-18Co cells, Cell Counting Kit-8, 72 hours
[2] = HFL1 cells, Cell Counting Kit-8, 72 hours
[3] = PC-14, PC14 cells, Cell Counting Kit-8, 72 hours
[4] = HCT-116 cells, Cell Counting Kit-8, 72 hours
[5] = A549 cells, Cell Counting Kit-8, 72 hours
[6] = CCD-18Co cells, 72 hours, Cell Counting Kit-8
[7] = HFL1 cells, 72 hours, Cell Counting Kit-8
[8] = PC-14, PC14 cells, 72 hours, Cell Counting Kit-8
[9] = HCT-116 cells, 72 hours, Cell Counting Kit-8
[10] = A549 cells, 72 hours, Cell Counting Kit-8

Chain of SUV39H2 (Q9H5I1 whole entry): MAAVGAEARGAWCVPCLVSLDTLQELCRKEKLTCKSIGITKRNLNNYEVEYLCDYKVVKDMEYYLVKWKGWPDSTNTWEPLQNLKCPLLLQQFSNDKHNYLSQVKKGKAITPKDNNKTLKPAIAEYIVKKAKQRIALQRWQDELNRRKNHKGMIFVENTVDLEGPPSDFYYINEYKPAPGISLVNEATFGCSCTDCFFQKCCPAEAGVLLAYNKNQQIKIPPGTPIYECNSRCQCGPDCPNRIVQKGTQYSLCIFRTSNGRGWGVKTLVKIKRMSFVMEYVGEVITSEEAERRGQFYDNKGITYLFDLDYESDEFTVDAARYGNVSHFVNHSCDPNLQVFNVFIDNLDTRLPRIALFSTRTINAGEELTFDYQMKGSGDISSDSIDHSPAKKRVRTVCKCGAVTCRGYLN

For COc1cc(OC)c(-c2cn3ccc(C4=CCN(CCN5CCCCC5)CC4)cc3n2)cc1Cl [Example 147, 2-(5-chloro-2,4-dimethoxyphenyl)-7-(1-(2-(piperidin-1-yl)ethyl)-1,2,3,6-tetrahydropyridin-4-yl)imidazo[1,2-a]pyridine], the IC50 (CCD-18Co; [1]) was 6 µM, the IC50 (HFL1; [2]) was 8.7 µM and the IC50 (PC14; [3]) was 5.9 µM. It also gave an IC50 (HCT-116; [4]) of 7.3 µM, an IC50 (SUV39H2) of 0.0295 µM and an IC50 (A549; [5]) of 7 µM.
CCOP(=O)(CCN1CC=C(c2ccn3cc(-c4cc(Cl)c(OC)cc4OC)nc3c2)CC1)OCC [Example 194, diethyl (2-(4-(2-(5-chloro-2,4-dimethoxyphenyl)imidazo[1,2-a]pyridin-7-yl)-5,6-dihydropyridin-1(2H)-yl)ethyl)phosphonate] was tested, and the IC50 (CCD-18Co; [1]) was 10 µM, the IC50 (HFL1; [2]) was 10 µM and the IC50 (PC14; [3]) was 5.7 µM. The IC50 (HCT-116; [4]) was 8.6 µM, the IC50 (SUV39H2) was 0.0696 µM and the IC50 (A549; [5]) was 9 µM.
Work on COc1cc(OCCCN(C)C)c(-c2cn3ccc(N4CCN(S(C)(=O)=O)CC4)cc3n2)cc1Cl [Example 155, 3-(4-chloro-5-methoxy-2-{7-[4-(methylsulfonyl)piperazin-1-yl]-imidazo[1,2-a]pyridin-2-yl}phenoxy)-N,N-dimethylpropan-1-amine] yielded an IC50 (CCD-18Co; [1]) of 7.5 µM, an IC50 (HFL1; [2]) of 5.5 µM and an IC50 (PC14; [3]) of 3.8 µM. The IC50 (HCT-116; [4]) was 5.8 µM, the IC50 (SUV39H2) was 0.0127 µM and the IC50 (A549; [5]) was 7.5 µM.
COc1cc(OCCCN(C)C)c(-c2cn3ccc(N4CCN(S(=O)(=O)C5CCCC5)CC4)nc3n2)cc1Cl [Example 227, 3-(4-chloro-2-(7-(4-(cyclopentylsulfonyl)piperazin-1-yl)imidazo[1,2-a]-pyrimidin-2-yl)-5-methoxyphenoxy)-N,N-dimethylpropan-1-amine] showed an IC50 (CCD-18Co; [6]) of 6.2 µM, an IC50 (HFL1; [7]) of 5.7 µM and an IC50 (PC14; [8]) of 5.4 µM. It also gave an IC50 (HCT-116; [9]) of 5.2 µM, an IC50 (SUV39H2) of 0.0382 µM and an IC50 (A549; [10]) of 7 µM.
For COc1cc(OC)c(-c2cn3ccc(N4CCC(NS(C)(=O)=O)C4)cc3n2)cc1Cl (stereo not drawn) [Example 40, N-(1-(2-(5-chloro-2,4-dimethoxyphenyl)imidazo[1,2-a]pyridin-7-yl)pyrrolidin-3-yl)methanesulfonamide], the IC50 (CCD-18Co; [1]) was 15 µM, the IC50 (HFL1; [2]) was 14 µM and the IC50 (PC14; [3]) was 6.7 µM. It also gave an IC50 (HCT-116; [4]) of 14 µM, an IC50 (SUV39H2) of 0.00381 µM and an IC50 (A549; [5]) of 17 µM.
Compound CCOP(=O)(CCN1CCN(c2ccn3cc(-c4cc(Cl)c(OC)cc4OC)nc3c2)CC1)OCC [Example 202, diethyl (2-(4-(2-(5-chloro-2,4-dimethoxyphenyl)imidazo[1,2-a]pyridin-7-yl)piperazin-1-yl)ethyl)phosphonate] has an IC50 (CCD-18Co; [1]) of 5.6 µM, an IC50 (HFL1; [2]) of 7.2 µM and an IC50 (PC14; [3]) of 8 µM. It also gave an IC50 (HCT-116; [4]) of 10 µM, an IC50 (SUV39H2) of 0.0064 µM and an IC50 (A549; [5]) of 10 µM.
For COc1cc(OC)c(-c2cn3ccc(N4CCN(CCCN(C)C)C4=O)cc3n2)cc1Cl [Example 167, 1-(2-(5-chloro-2,4-dimethoxyphenyl)imidazo[1,2-a]pyridin-7-yl)-3-(3-(dimethylamino)propyl)imidazolidin-2-one], the IC50 (CCD-18Co; [1]) was 6.9 µM, the IC50 (HFL1; [2]) was 6.5 µM and the IC50 (PC14; [3]) was 3.9 µM. It also gave an IC50 (HCT-116; [4]) of 6.8 µM, an IC50 (SUV39H2) of 0.0124 µM and an IC50 (A549; [5]) of 6.4 µM.
COc1cc(OC)c(-c2cn3ccc(N4CC[C@H](NCc5ccc(C(F)(F)F)cc5)C4)cc3n2)cc1Cl [Example 303, (S)-1-(2-(5-chloro-2,4-dimethoxyphenyl)imidazo[1,2-a]pyridin-7-yl)-N-(4-(trifluoromethyl)benzyl)pyrrolidin-3-amine] was tested, and the IC50 (CCD-18Co; [6]) was 0.86 µM, the IC50 (HFL1; [7]) was 0.68 µM and the IC50 (PC14; [8]) was 0.95 µM. It also gave an IC50 (HCT-116; [9]) of 0.7 µM, an IC50 (SUV39H2) of 0.0278 µM and an IC50 (A549; [10]) of 1 µM.
COc1cc(OC)c(-c2cn3ccc(N4CCC(CO)CC4)cc3n2)cc1Cl [Example 41, (1-(2-(5-chloro-2,4-dimethoxyphenyl)imidazo[1,2-a]pyridine-7-yl)piperidin-4-yl)methanol] showed an IC50 (CCD-18Co; [1]) of 3.1 µM, an IC50 (HFL1; [2]) of 2.9 µM and an IC50 (PC14; [3]) of 2.8 µM. The IC50 (HCT-116; [4]) was 3.5 µM, the IC50 (SUV39H2) was 0.0054 µM and the IC50 (A549; [5]) was 3.2 µM.
For COc1cc(OC)c(-c2cn3ccc(N4CCN(CCN5CCOCC5)CC4)cc3n2)cc1Br [Example 131, 4-(2-(4-(2-(5-bromo-2,4-dimethoxyphenyl)imidazo[1,2-a]pyridin-7-yl)-piperazin-1-yl)ethyl)morpholine], the IC50 (CCD-18Co; [1]) was 8.3 µM, the IC50 (HFL1; [2]) was 7.3 µM and the IC50 (PC14; [3]) was 6.8 µM. The IC50 (HCT-116; [4]) was 8.4 µM, the IC50 (SUV39H2) was 0.00349 µM and the IC50 (A549; [5]) was 8.3 µM.
Work on COc1cc(OC)c(-c2cn3ccc(NC(=O)[C@@H](N)Cc4c[nH]c5ccccc45)cc3n2)cc1Cl [Example 250, (S)-2-amino-N-(2-(5-chloro-2,4-dimethoxyphenyl)imidazo[1,2-a]pyridin-7-yl)-3-(1H-indol-3-yl)propanamide] yielded an IC50 (CCD-18Co; CCD-18Co, 72 h) of 4 µM, an IC50 (HFL1; HFL1, 72 h) of 3.6 µM and an IC50 (PC14; PC-14, 72 h) of 4.2 µM. For the same compound, the IC50 (HCT-116; HCT-116, 72 h) was 6.9 µM, the IC50 (SUV39H2) was 0.0427 µM and the IC50 (A549; A549, 72 h) was 6.6 µM.
COc1cc(OC)c(-c2cn3ccc(N4CCC(NS(C)(=O)=O)CC4)nc3n2)cc1Cl [Example 192, N-(1-(2-(5-chloro-2,4-dimethoxyphenyl)imidazo[1,2-a]pyrimidin-7-yl)-piperidin-4-yl)methanesulfonamide] gave an IC50 (CCD-18Co; [1]) of 5.3 µM, an IC50 (HFL1; [2]) of 5.1 µM and an IC50 (PC14; [3]) of 10 µM. It also gave an IC50 (HCT-116; [4]) of 10 µM, an IC50 (SUV39H2) of 0.0148 µM and an IC50 (A549; [5]) of 10 µM.
For COc1cc(OC)c(-c2cn3ccc(N4CCC(NS(=O)(=O)N(C)C)CC4)cc3n2)cc1Cl [Example 181, N-{1-[2-(5-Chloro-2,4-dimethoxyphenyl)imidazo[1,2-a]pyridin-7-yl]piperidin-4-yl}N,N-dimethylsulfonamide], the IC50 (CCD-18Co; [1]) was 0.38 µM, the IC50 (HFL1; [2]) was 0.35 µM and the IC50 (PC14; [3]) was 1.5 µM. It also gave an IC50 (HCT-116; [4]) of 1.6 µM, an IC50 (SUV39H2) of 0.0139 µM and an IC50 (A549; [5]) of 0.76 µM.
COc1cc(OC)c(-c2cn3ccc(N4CCCC4)nc3n2)cc1Cl [Example 9, 2-(5-chloro-2,4-dimethoxyphenyl)-7-(pyrrolidin-1-yl)imidazo-[1,2-a]pyrimidine hydrobromide] gave an IC50 (CCD-18Co; [1]) of 8 µM, an IC50 (HFL1; [2]) of 7.1 µM and an IC50 (PC14; [3]) of 6.3 µM. The IC50 (HCT-116; [4]) was 6.8 µM, the IC50 (SUV39H2) was 0.00608 µM and the IC50 (A549; [5]) was 8 µM.
For COc1cc(OC)c(-c2cn3ccc(N4CCN(c5ccnc(N)n5)CC4)cc3n2)cc1Cl [Example 279, 4-(4-(2-(5-chloro-2,4-dimethoxyphenyl)imidazo[1,2-a]pyridin-7-yl)-piperazin-1-yl)pyrimidin-2-amine], the IC50 (CCD-18Co; [6]) was 0.33 µM, the IC50 (HFL1; [7]) was 0.33 µM and the IC50 (PC14; [8]) was 0.38 µM. The IC50 (HCT-116; [9]) was 0.32 µM, the IC50 (SUV39H2) was 0.00938 µM and the IC50 (A549; [10]) was 0.32 µM.
For COc1cc(OC)c(-c2cn3ccc(N4CCN(P(=O)(OC)OC)CC4)nc3n2)cc1Cl [Example 218, dimethyl (4-(2-(5-chloro-2,4-dimethoxyphenyl)imidazo[1,2-a]pyrimidin-7-yl)piperazin-1-yl)phosphonate], the IC50 (CCD-18Co; CCD-18Co, 72 h) was 10 µM, the IC50 (HFL1; HFL1, 72 h) was 10 µM and the IC50 (PC14; PC-14, 72 h) was 3.4 µM. It also gave an IC50 (HCT-116; HCT-116, 72 h) of 5.6 µM, an IC50 (SUV39H2) of 0.0111 µM and an IC50 (A549; A549, 72 h) of 6.5 µM.
Compound COc1cc(OC)c(-c2cn3cc(NCCN)c(N4CCN(C(=O)OC(C)(C)C)CC4)nc3n2)cc1Cl [Example 221, tert-butyl 4-(6-((2-aminoethyl)amino)-2-(5-chloro-2,4-dimethoxyphenyl)imidazo[1,2-a]pyrimidin-7-yl)piperazine-1-carboxylate] has an IC50 (CCD-18Co; [6]) of 5.6 µM, an IC50 (HFL1; [7]) of 4.9 µM and an IC50 (PC14; [8]) of 9.5 µM. It also gave an IC50 (HCT-116; [9]) of 5.4 µM, an IC50 (SUV39H2) of 0.0118 µM and an IC50 (A549; [10]) of 10 µM.
For COc1cc(OC)c(-c2cn3ccc(N)cc3n2)cc1Cl [Example 151, 2-(5-chloro-2,4-dimethoxyphenyl)imidazo[1,2-a]pyridin-7-amine], the IC50 (CCD-18Co; [1]) was 2.4 µM, the IC50 (HFL1; [2]) was 1.9 µM and the IC50 (PC14; [3]) was 2.9 µM. For the same compound, the IC50 (HCT-116; [4]) was 2.3 µM, the IC50 (SUV39H2) was 0.00827 µM and the IC50 (A549; [5]) was 5.1 µM.
In the case of COc1cc(OC)c(-c2cn3ccc(-c4ccc(NCc5ncc[nH]5)cc4)cc3n2)cc1Cl [Example 270, N-((1H-imidazol-2-yl)methyl)-4-(2-(5-chloro-2,4-dimethoxyphenyl)-imidazo[1,2-a]pyridin-7-yl)aniline], the IC50 (CCD-18Co; [6]) was 1.7 µM, the IC50 (HFL1; [7]) was 0.89 µM and the IC50 (PC14; [8]) was 0.45 µM. For the same compound, the IC50 (HCT-116; [9]) was 1 µM, the IC50 (SUV39H2) was 0.0199 µM and the IC50 (A549; [10]) was 0.99 µM.
With COc1cc(OC)c(-c2cn3ccc(N4CCN(CCCC(=O)O)CC4)cc3n2)cc1Cl [Example 240, 4-(4-(2-(5-chloro-2,4-dimethoxyphenyl)imidazo[1,2-a]pyridine-7-yl)piperazin-1-yl)butanoic acid] the IC50 (CCD-18Co; [6]) was 10 µM, the IC50 (HFL1; [7]) was 10 µM and the IC50 (PC14; [8]) was 10 µM. The IC50 (HCT-116; [9]) was 10 µM, the IC50 (SUV39H2) was 0.0063 µM and the IC50 (A549; [10]) was 10 µM.
